Experimental data published in US20220073536A1 (Rigel Pharmaceuticals, Inc., priority 2003, published 2022).
pIC50: −log10 of the molar value. Like-named read-outs stand apart in the source and are kept apart here.

System: cultured human mast cells (CHMC)
Assay: CHMC low cell density IgE activation: tryptase assay
Assay type: cell-based
Details: low cell density, IgE activation
Outline: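 CHMC at 1000–1500 cells/well were preincubated 1 hr at 37° C., stimulated with anti-IgE for 30 minutes at 37° C., then pelleted. Supernatant tryptase was measured with a fluorogenic substrate after 30 min at room temperature, against un-stimulated control wells.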

[1] = 8 pt, read-out: LD Tryptase, CHMC, IgE, 8 pt
[2] = Homo sapiens, Mast cell, 8 pt, read-out: LD Tryptase, CHMC, IgE, 8 pt
[3] = Homo sapiens, Mast cell, 3 pt, read-out: LD Tryptase, CHMC, IgE, 3 pt
[4] = 3 pt, read-out: LD Tryptase, CHMC, IgE, 3 pt

pIC50 [1] | pIC50 [2] | pIC50 [3] | SMILES | other results
> 5.00 | – | – | OCCn1c(C(F)(F)F)nc2cc(Nc3ncc(F)c(Nc4ccc(Cl)c(Cl)c4)n3)ccc21 [Compound 916] | –
– | – | > 5.00 | COc1ccc(Nc2nc(Nc3ccc4oncc4c3)ncc2F)cc1Cl [Compound 925] | –
– | – | < 5.00 | CCn1c(C)nc2cc(Nc3ncc(F)c(Nc4ccc(Cl)c(Cl)c4)n3)ccc21 [Compound 932] | –
– | – | > 5.00 | CCn1c(C)nc2cc(Nc3ncc(F)c(Nc4ccc(OC)c(Cl)c4)n3)ccc21 [Compound 933] | –
– | – | > 5.00 | CCn1c(C)nc2cc(Nc3ncc(F)c(Nc4ccc5c(c4)NC(=O)C(C)(C)O5)n3)ccc21 [Compound 934] | –
– | > 5.00 | > 5.00 | CCn1c(C)nc2cc(Nc3ncc(F)c(Nc4ccc5c(c4)NC(=O)[C@H](C)O5)n3)ccc21 [Compound 935] | –
– | – | > 5.00 | COc1ccc(Nc2nc(Nc3ccc4c(c3)nc(C(F)(F)F)n4CCCO)ncc2F)cc1Cl [Compound 938] | –
– | > 5.00 | – | Cc1nc2cc(Nc3ncc(F)c(Nc4ccc(Cl)c(Cl)c4)n3)ccc2n1CCCO [Compound 947] | –
– | > 5.00 | – | COc1ccc(Nc2nc(Nc3ccc4c(c3)nc(C)n4CCCO)ncc2F)cc1Cl [Compound 948] | –
– | > 5.00 | – | Cc1nc2cc(Nc3ncc(F)c(Nc4ccc5c(c4)NC(=O)C(C)(C)O5)n3)ccc2n1CCCO [Compound 949] | –
> 5.00 | – | – | COc1ccc(Nc2nc(Nc3ccc4c(c3)nc(CN3CCOCC3)n4C)ncc2F)cc1Cl [Compound 955, N4-(3-Chloro-4-methoxyphenyl)-5-fluoro-N2-[1-methyl-2-(4-morpholinomethyl)benzimidazol-5-yl]-2,4-pyrimidinediamine] | –
> 5.00 | – | – | COc1ccc(Nc2nc(Nc3ccc4[nH]c(CN5CCOCC5)nc4c3)ncc2F)cc1Cl [Compound 960, N4-(3-Chloro-4-methoxyphenyl)-5-fluoro-N2-[2-(4-morpholinomethyl)-1H-benzimidazol-5-yl]-2,4-pyrimidinediamine] | –
– | – | > 5.00 | Cn1c(CS(C)(=O)=O)nc2cc(Nc3ncc(F)c(Nc4ccc(Cl)c(Cl)c4)n3)ccc21 [Compound 965] | –
– | – | > 5.00 | COc1ccc(Nc2nc(Nc3ccc4c(c3)nc(CS(C)(=O)=O)n4C)ncc2F)cc1Cl [Compound 966] | –
– | – | > 5.00 | CCN(CC)Cc1nc2cc(Nc3ncc(F)c(Nc4ccc(Cl)c(Cl)c4)n3)ccc2n1C [Compound 970] | –
– | – | > 5.00 | CCN(CC)Cc1nc2cc(Nc3ncc(F)c(Nc4ccc(OC)c(Cl)c4)n3)ccc2n1C [Compound 971] | –

The remaining lines, values behind:

SMILES | pIC50 [1] | pIC50 [2] | pIC50 [3] | other results
COc1ccc(Nc2nc(N)nc(-c3ccc4c(c3)nc(C(F)(F)F)n4CCO)c2F)cc1Cl [Compound 917] | – | > 5.00 | – | –
CC1(C)Oc2ccc(Nc3nc(N)nc(-c4ccc5c(c4)nc(C(F)(F)F)n5CCO)c3F)cc2NC1=O [Compound 918] | – | > 5.00 | > 5.00 | –
C[C@@H]1Oc2ccc(Nc3nc(N)nc(-c4ccc5c(c4)nc(C(F)(F)F)n5CCO)c3F)cc2NC1=O [Compound 919] | – | > 5.00 | > 5.00 | –
CC1(C)Oc2ccc(Nc3nc(Nc4ccc5oncc5c4)ncc3F)cc2NC1=O [Compound 926] | – | > 5.00 | – | –
C[C@@H]1Oc2ccc(Nc3nc(Nc4ccc5oncc5c4)ncc3F)cc2NC1=O [Compound 927] | – | > 5.00 | – | –
CC1(C)Oc2ccc(Nc3nc(Nc4ccc5oncc5c4)ncc3F)nc2NC1=O [Compound 928, N2-(1,2-Benzisoxazol-5-yl)-N4-(2,2-dimethyl-3-oxo-4H-5-pyrido[1,4]oxazin-6-yl)-5-fluoro-2,4-pyrimidinediamine] | > 5.00 | – | – | –
CC1(C)C(=O)Nc2cc(Nc3nc(Nc4ccc5oncc5c4)ncc3F)ccc2S1(=O)=O [Compound 930] | – | – | > 5.00 | –
CCn1c(C)nc2cc(Nc3ncc(F)c(Nc4ccc5c(n4)NC(=O)C(C)(C)O5)n3)ccc21 [Compound 936, N4-(2,2-Dimethyl-3-oxo-4H-5-pyrido[1,4]oxazin-6-yl)-N2-(1-ethyl-2-methylbenzimidazol-5-yl)-5-fluoro-2,4-pyrimidinediamine] | – | – | – | pIC50 [4]: > 5.00
OCCCn1c(C(F)(F)F)nc2cc(Nc3ncc(F)c(Nc4ccc(Cl)c(Cl)c4)n3)ccc21 [Compound 937] | – | > 5.00 | > 5.00 | –
CC1(C)Oc2ccc(Nc3nc(Nc4ccc5c(c4)nc(C(F)(F)F)n5CCCO)ncc3F)cc2NC1=O [Compound 939] | – | > 5.00 | > 5.00 | –
C[C@@H]1Oc2ccc(Nc3nc(Nc4ccc5c(c4)nc(C(F)(F)F)n5CCCO)ncc3F)cc2NC1=O [Compound 940] | – | > 5.00 | > 5.00 | –
CC1(C)Oc2ccc(Nc3nc(Nc4ccc5c(c4)nc(C(F)(F)F)n5CCCO)ncc3F)nc2NC1=O [Compound 941, N4-(2,2-Dimethyl-3-oxo-4H-5-pyrido[1,4]oxazin-6-yl)-5-fluoro-N2-[1-(3-hydroxypropyl)-2-trifluoromethylbenzimidazol-5-yl]-2,4-pyrimidinediamine] | > 5.00 | – | – | pIC50 [4]: > 5.00
C[C@@H]1Oc2ccc(Nc3nc(Nc4ccc5c(c4)nc(N4CCOCC4)n5C)ncc3F)cc2NC1=O [Compound 945, (S)-5-Fluoro-N2-[1-methyl-2-(4-morpholino)benzimidazol-5-yl]-N4-(2-methyl-3-oxo-2H,4H-benz[1,4]oxazin-6-yl)-2,4-pyrimidinediamine] | > 5.00 | – | – | pIC50 [4]: > 5.00
Cn1c(N2CCOCC2)nc2cc(Nc3ncc(F)c(Nc4ccc5c(n4)NC(=O)C(C)(C)O5)n3)ccc21 [Compound 946, N4-(2,2-Dimethyl-3-oxo-4H-5-pyrido[1,4]oxazin-6-yl)-5-fluoro-N2-[1-methyl-2-(4-morpholino)benzimidazol-5-yl]-2,4-pyrimidinediamine] | > 5.00 | – | – | pIC50 [4]: > 5.00
Cc1nc2cc(Nc3ncc(F)c(Nc4ccc5c(c4)NC(=O)[C@H](C)O5)n3)ccc2n1CCCO [Compound 950] | – | > 5.00 | – | –
Cc1nc2cc(Nc3ncc(F)c(Nc4ccc5c(n4)NC(=O)C(C)(C)O5)n3)ccc2n1CCCO [Compound 951, N4-(2,2-Dimethyl-3-oxo-4H-5-pyrido[1,4]oxazin-6-yl)-5-fluoro-N2-[1-(3-hydroxypropyl)-2-methylbenzimidazol-5-yl]-2,4-pyrimidinediamine] | > 5.00 | – | – | pIC50 [4]: > 5.00
CC(=O)NCCCn1c(C)nc2cc(Nc3ncc(F)c(Nc4ccc5c(c4)NC(=O)C(C)(C)O5)n3)ccc21 [Compound 952] | – | > 5.00 | > 5.00 | –
CC(=O)NCCCn1c(C)nc2cc(Nc3ncc(F)c(Nc4ccc5c(n4)NC(=O)C(C)(C)O5)n3)ccc21 [Compound 953, N2-[1-[3-(N-Acetylamino)propyl]-2-methylbenzimidazol-5-yl]-N4-(2,2-Dimethyl-3-oxo-4H-5-pyrido[1,4]oxazin-6-yl)-5-fluoro-2,4-pyrimidinediamine] | > 5.00 | – | – | pIC50 [4]: > 5.00
Cn1c(CN2CCOCC2)nc2cc(Nc3ncc(F)c(Nc4ccc(Cl)c(Cl)c4)n3)ccc21 [Compound 954, N4-(3,4-Dichlorophenyl)-5-fluoro-N2-[1-methyl-2-(4-morpholinomethyl)benzimidazol-5-yl]-2,4-pyrimidinediamine] | > 5.00 | – | – | pIC50 [4]: > 5.00
Cn1c(CN2CCOCC2)nc2cc(Nc3ncc(F)c(Nc4ccc5c(c4)NC(=O)C(C)(C)O5)n3)ccc21 [Compound 956, N4-(2,2-Dimethyl-3-oxo-4H-benz[1,4]oxazin-6-yl)-5-fluoro-N2-[1-methyl-2-(4-morpholinomethyl)benzimidazol-5-yl]-2,4-pyrimidinediamine] | > 5.00 | – | – | –
C[C@@H]1Oc2ccc(Nc3nc(Nc4ccc5c(c4)nc(CN4CCOCC4)n5C)ncc3F)cc2NC1=O [Compound 957, (S)-5-Fluoro-N2-[1-methyl-2-(4-morpholinomethyl)benzimidazol-5-yl]-N4-(2-methyl-3-oxo-2H,4H-benz[1,4]oxazin-6-yl)- -2,4-pyrimidinediamine] | > 5.00 | – | – | pIC50 [4]: > 5.00
Cn1c(CN2CCOCC2)nc2cc(Nc3ncc(F)c(Nc4ccc5c(n4)NC(=O)C(C)(C)O5)n3)ccc21 [Compound 958, N4-(2,2-Dimethyl-3-oxo-4H-5-pyrido[1,4]oxazin-6-yl)-5-fluoro-N2-[1-methyl-2-(4-morpholinomethyl)benzimidazol-5-yl]-2,4-pyrimidinediamine] | > 5.00 | – | – | –
CC1(C)Oc2ccc(Nc3nc(Nc4ccc5[nH]c(CN6CCOCC6)nc5c4)ncc3F)cc2NC1=O [Compound 961, N4-(2,2-Dimethyl-3-oxo-4H-benz[1,4]oxazin-6-yl)-5-fluoro-N2-[2-(4-morpholinomethyl)-1H-benzimidazol-5-yl]-2,4-pyrimidinediamine] | – | > 5.00 | – | –
CC1(C)Oc2ccc(Nc3nc(Nc4ccc5[nH]c(CN6CCOCC6)nc5c4)ncc3F)nc2NC1=O [Compound 962, N4-(2,2-Dimethyl-3-oxo-4H-5-pyrido[1,4]oxazin-6-yl)-5-fluoro-N2-[2-(4-morpholinomethyl)-1H-benzimidazol-5-yl]-2,4-pyrimidinediamine] | – | > 5.00 | – | –
Cc1nc2cc(Nc3ncc(F)c(Nc4ccc5c(c4)NC(=O)C(C)(C)O5)n3)ccc2n1CCCNS(C)(=O)=O [Compound 963] | – | > 5.00 | – | –
Cc1nc2cc(Nc3ncc(F)c(Nc4ccc5c(n4)NC(=O)C(C)(C)O5)n3)ccc2n1CCCNS(C)(=O)=O [Compound 964, N4-(2,2-Dimethyl-3-oxo-4H-5-pyrido[1,4]oxazin-6-yl)-5-fluoro-N2-[2-methyl-1-[3-(N-methylsulfonylamino)propyl]benzimidazol-5-yl]-2,4-pyrimidinediamine] | > 5.00 | – | – | pIC50 [4]: > 5.00
C[C@@H]1Oc2ccc(Nc3nc(Nc4ccc5c(c4)nc(CS(C)(=O)=O)n5C)ncc3F)cc2NC1=O [Compound 968] | – | > 5.00 | > 5.00 | –
Cn1c(CS(C)(=O)=O)nc2cc(Nc3ncc(F)c(Nc4ccc5c(n4)NC(=O)C(C)(C)O5)n3)ccc21 [Compound 969, N4-(2,2-Dimethyl-3-oxo-4H-5-pyrido[1,4]oxazin-6-yl)-5-fluoro-N2-{1-methyl-2-[ (methylsulfonyl)methyl]benzimidazol-5-yl}-2,4-pyrimidinediamine] | > 5.00 | – | – | pIC50 [4]: > 5.00
